Experimental data: US20100063156A1, “ANANDAMIDE” (priority 2006, published 2010)

What was measured:
[1] = tested on: Sprague-Dawley rats; assay: Food intake in rats after intragastric infusion of anandamide; assay type: in vivo, rat; conditions: for 9-h cumulative food intake: intragastric infusion in sunflower oil, rats food-deprived 15 h, control 27.1 g
Procedure: An experiment was conducted to measure the effect of different levels of anandamide intake on food intake in rats. Thirteen adult male Sprague-Dawley rats (Charles River, Germany) were surgically equipped with a chronic gastric cannula. Animals were individually housed in plastic cages (42×22×36 cm) with stainless steel grid floors in a temperature-controlled (22±2° C.) room. The 12:12-h light-dark cycle was inversed (lights off 09:00 h).
Rats had free access to water and restricted access to ground extruded feed (No. 3436, Provimi Kliba-nafag, Kaiseraugst, Switzerland). To prevent spoilage of food, it was placed in cups at the end of a tunnel (5×10×30 cm) that protruded from the side of the cage, with its bottom 5 cm above the cage floor. Food cups were mounted on electronic balances (Mettler PM 3000, Switzerland) that were interfaced with a computer (Olivetti M 300, Germany). Weights of the food cups were recorded the every 30 s, enabling continuous measurement of spontaneous feeding patterns. Anandamide (98% purity, dissolved in ethanol) was obtained from Cayman Chemical Company, Michigan, USA). It was stored deep-frozen, until the experiment. Than the proper quantity was mixed into sunflower oil.
Before starting the experimental period, rats (394±7 g) were adapted to the restricted food access. One day prior to the test, they were also adapted to infusion of sunflower oil. The experimental period lasted five consecutive days. During the experiment, rats were deprived from food each day for 15 h (18.00-9.00 h). […] Each of these doses was given to three rats. One rat was excluded from the experiment after 2 days, and a spare animal was included.

[2] = tested on: rats; conditions: anandamide introduced by injection (Williams & Kirkham 2002); cited from earlier work
[3] = tested on: test animals; conditions: introduced into the blood stream; neither decreased nor increased food intake; cited from earlier work

In the case of `CCCCC/C=C\C/C=C\C/C=C\C/C=C\CCCC(=O)NCCO` [anandamide, arachidonyl-ethanolamide], the “9-h cumulative food intake” value ([1]; 2.5 mg anandamide/d) is reported as 25.8 g, the “food intake compared to the control” value ([1]; 2.5 mg/d, intragastric) is reported as “did not affect food intake” and the “9-h cumulative food intake” value ([1]; 5.0 mg anandamide/d) is reported as 27.6 g. For the same molecule, the “food intake calculated as a mean over the 9-h period” value ([1]; 5.0 mg versus 0 or 2.5 mg anandamide) was “significantly lower”, the “food intake compared to the control” value ([1]; 5.0 mg, 3 through 6 hours after infusion, P<0.001, difference disappeared later) was “reduced food intake significantly” and the “9-h cumulative food intake, significance versus other treatments” value ([1]; 7.5 mg anandamide/d versus 0, 2.5 and 5.0 mg) was “significantly different from the other treatments”. For the same molecule, the “9-h cumulative food intake” value ([1]; 7.5 mg anandamide/d) was 23.0 g, the “food intake calculated as a mean over the 9-h period” value ([1]; 7.5 mg versus 0 or 2.5 mg anandamide) was “significantly lower” and the “food intake compared to the control” value ([1]; 7.5 mg/d, until 9 h post-infusion) was “lower food intake persisted until 9 h post-infusion”. For the same molecule, the “appetite / feeding effect” value [2] was “Appetite stimulating effects were found” and the voluntary food intake [3] was “ineffective”.
